The values below come from patent publication US9040571B2, “Veterinary formulation for administration of a water-insoluble drug to a target animal through a water distribution system” (Elanco Animal Health Ireland Limited, priority 1999, dated 2015).

This data set in a line: Particle size distribution by static light scattering, storage stability. The note with it: 45 mm lens, tap-water. The format is physicochemical. How it is done:
Additionally, the particle size distribution of the original suspoemulsion was determined by static light scattering measurements using a 45 mm lens and tap-water. The stability of the undiluted suspoemulsion as measured by static light scattering measurements was followed over a period of 8 months. The results from the Turbiscan scan measurements were evaluated graphically. […] This implies that the diluted product stays stable under static conditions, like for example in the dosage tank of an automatic injection system.

Turning to `COC(=O)Nc1nc2cc(C(=O)c3ccc(F)cc3)ccc2[nH]1` [Fb powder, flubendazole], the “particle size distribution at t = 0, (D[3, 2] in μm)” value was 1.53 μm.
